Experimental data: US20100209486A1, “Method of enhancing CoenzymeQ10 levels in mammals” (priority 2009, published 2010)
Where “and” joins values, the source holds several entries; their conditions need not be identical. Equal entries are not always repeated. Marks after values point to notes of the source that are not given here.

Assays:
[1] = test system: isolated guinea pig hearts; test: Cardiomyocyte apoptosis (TUNEL) in isolated ischemic/reperfused guinea pig hearts; format: in vivo; settings: 5 mg/kg/day oral for 4 weeks; end of reperfusion; percent of total myocyte population; control 21±2%
Description: FIG. 2/B. Effects of CoQ10 and CoQ9 on cardiomyocyte apoptosis in isolated guinea pig hearts subjected to 30 min of ischemia followed by 120 min of reperfusion. The bars represent mean±SD of cardiomyocyte apoptosis for control, CoQ10 and CoQ9 supplemented groups. *p<0.05 compared to the untreated age-matched ischemic/reperfused drug-free control (C) value.
Experimental studies were designed to determine if CoQ9 could protect guinea pig hearts from ischemia reperfusion injury. Myocardial ischemia reperfusion injury model is the most widely accepted experimental method for assessment of parameters related to cardio-protection. […] Cardioprotection was assessed by evaluating left ventricular function, ventricular arrhythmias, myocardial infarct size and cardiomyocyte apoptosis.
CoQ9 and CoQ10 treatment reduces apoptosis of cardiomyocytes: Animal preparation, drug pretreatment and isolated working heart preparation were done as described in example 1. […] The fluorescence staining was viewed with a confocal laser microscope. The number of apoptotic cells was counted and expressed as a percent of total myocyte population. […] Apoptosis of cardiomyocytes determined by Tunel method in control group was about 21±2% at the end of reperfusion.

[2] = test system: isolated guinea pig hearts; test: Recovery of post-ischemic cardiac function (HR, CF, AF, LVDP) in isolated working guinea pig hearts; format: in vivo; settings: 5 mg/kg/day oral for 4 weeks; for aortic flow (AF), After 60 min of RE / coronary flow (CF), After 60 min of RE / heart rate (HR), After 60 min of RE / left ventricular developed pressure (LVDP), After 60 min of RE / aortic flow (AF), After 120 min of RE / heart rate (HR), After 120 min of RE / coronary flow (CF), After 120 min of RE / left ventricular developed pressure (LVDP), After 120 min of RE: 30 min ischemia; for aortic flow (AF), After 60 min of RE / coronary flow (CF), After 60 min of RE / heart rate (HR), After 60 min of RE / left ventricular developed pressure (LVDP), After 60 min of RE: 60 min reperfusion; for aortic flow (AF), After 120 min of RE / heart rate (HR), After 120 min of RE / coronary flow (CF), After 120 min of RE / left ventricular developed pressure (LVDP), After 120 min of RE: 120 min reperfusion; for aortic flow (AF), Before ISA / coronary flow (CF), Before ISA / heart rate (HR), Before ISA / left ventricular developed pressure (LVDP), Before ISA: isolated heart before ischemia
Description: Experimental studies were designed to determine if CoQ9 could protect guinea pig hearts from ischemia reperfusion injury. Myocardial ischemia reperfusion injury model is the most widely accepted experimental method for assessment of parameters related to cardio-protection. Guinea pigs were randomly divided into three groups: Group II and Group III were supplemented with 5 mg/kg bodyweight of CoQ9 and CoQ10, respectively, for 4 weeks while Group I served as control (C). After 4 weeks, the guinea pigs were sacrificed and the isolated hearts were perfused via working mode. The isolated hearts were subjected to ischemia for 30 min followed by 2 hours of reperfusion. Cardioprotection was assessed by evaluating left ventricular function, ventricular arrhythmias, myocardial infarct size and cardiomyocyte apoptosis.
Similar types of post-ischemic recovery of HR, CF, and LVDP were registered (Table 1) in isolated hearts obtained from guinea pigs treated with 5 mg/kg/day of CoQ10 or CoQ9 for 4 weeks. The improvement in post-ischemic cardiac function (HR, CF, AF, and LVDP) was more pronounced in the CoQ9 treated group than in the CoQ10 treated group.
Protective effect of CoQ9 and CoQ10 against from Ventricular Fibrillation (VF): Healthy Male Hartley guinea pigs of about 350-400 gm body weight were randomly divided into three groups, Control, CoQ9 and CoQ10. The guinea pigs were given orally 5 mg/kg body weight [in 0.5 ml water] of vehicle only, CoQ9 or CoQ10 respectively by gavage once a day. […] Treatment was continued for 30 days, the animals had free access to food and water. After 30 days, all animals were anesthetized, heparinized and sacrificed. The hearts excised, and isolated for perfusion via Langendorff mode for 5 min of washout period of the Langendorff heart perfusion, the pulmonary vein was cannulated, and the heart was switched to the “working” mode via perfusion of the left atria (at a filling pressure of 17 cm of the buffer, 1.7 kPa) as it was described in detail elsewhere. Global ischemia was imposed by clamping the atrial and aortic cannulas. Epicardial ECG was recorded through out the experiment, by attaching two silver electrodes directly to the myocardium and data collected using a data acquisition system (ADInstruments, Powerlab, Castle Hill, Australia). ECGs were analyzed to determine ventricular fibrillation (VF) and ventricular tachycardia (VT). The first 10 min of reperfusion was done in Langendorf (‘nonworking’) mode in order to avoid the development of reperfusion-induced VT and VF during the ‘working’ heart reperfusion. After the initial 2 min of VT or/and VF (sustained VF) in Langendorff reperfusion, hearts were defibrillated (if it was necessary), reperfused for an additional 8 min in Langendorff mode, and switched to ‘working heart’ reperfusion, and myocardial function was recorded. The heart was considered to be in VF if an irregular undulating baseline was apparent on the ECG. The data of VT, VF and sinus rhythm show their durations (in seconds) within the first 120 s of nonworking Langendorff reperfusion. The incidences of reperfusion-induced ventricular fibrillation (VF) for CoQ9 and CoQ10 are depicted in FIG. 1. […] Incidence of VF was reduced from 92% (control group) to 25% (*p<0.05) and 8% (*p<0.05) with 5 mg/kg/day of CoQ10 and CoQ9, respectively.
CoQ9 and CoQ10 treatment improves post-ischemic cardiac function (HR, CF, AF, and LVDP): Animal preparation, drug pretreatment and isolated working heart preparation were done as described in example 1. The isolated hearts obtained from group II and Group III guinea pigs treated with 5 mg/kg/day of […], for 4 weeks were subjected to 30 min ischemia followed by 120 min of reperfusion. […]

Structure (SMILES) | apoptotic cardiomyocytes (Tunel method) [1] | aortic flow (AF), After 60 min of RE [2] | coronary flow (CF), After 60 min of RE [2] | heart rate (HR), After 60 min of RE [2] | left ventricular developed pressure (LVDP), After 60 min of RE [2] | aortic flow (AF), After 120 min of RE [2] | heart rate (HR), After 120 min of RE [2] | aortic flow (AF), Before ISA [2] | heart rate (HR), Before ISA [2] | left ventricular developed pressure (LVDP), Before ISA [2] | also measured
COC1=C(OC)C(=O)C(C/C=C(\C)CC/C=C(\C)CC/C=C(\C)CC/C=C(\C)CC/C=C(\C)CC/C=C(\C)CC/C=C(\C)CC/C=C(\C)CCC=C(C)C)=C(C)C1=O [CoQ9, Coenzyme Q9] | 7±1.5% | 27 ± 1* ml/min | 22 ± 2* ml/min | 240 ± 4* beats/min | 80 ± 2* mm Hg | 26.0 ± 1.0 mL/min | 233±4 beats/min | 35 ± 2 mL/min | 248 ± 5 beats/min | 106 ± 4 mm Hg | aortic flow (AF), After 120 min of RE ([2]; listed as CoQ 9): 26 ± 1 mL/min; coronary flow (CF), After 120 min of RE ([2]; listed as CoQ 9): 25 ± 2 mL/min; left ventricular developed pressure (LVDP), After 120 min of RE ([2]; listed as CoQ 9): 75±2 mm Hg; aortic flow (AF), After 120 min of RE ([2]; listed as Q9): 26 ± 1* ml/min; coronary flow (CF), After 120 min of RE ([2]; listed as Q9): 25 ± 2* ml/min; heart rate (HR), After 120 min of RE ([2]; listed as Q9): 233 ± 4* beats/min; left ventricular developed pressure (LVDP), After 120 min of RE ([2]; listed as Q9): 75 ± 2* mm Hg; coronary flow (CF), Before ISA [2]: 23 ± 2 mL/min; coronary flow (CF), Before ISA ([2]; listed as Q9): 23 ± 2 mL/min
COC1=C(OC)C(=O)C(C/C=C(\C)CC/C=C(\C)CC/C=C(\C)CC/C=C(\C)CC/C=C(\C)CC/C=C(\C)CC/C=C(\C)CC/C=C(\C)CC/C=C(\C)CCC=C(C)C)=C(C)C1=O [CoQ10, Coenzyme Q10, reference compound] | 6±1% | 20 ± 2* ml/min | 20 ± 1* ml/min | 228 ± 3* beats/min | 71 ± 3* mm Hg | 18.0 ± 2.0 mL/min and 18 ± 2 mL/min | 217±3 beats/min | 34 ± 2 mL/min | 261 ± 6 beats/min | 100 ± 5 mm Hg | coronary flow (CF), After 120 min of RE [2]: 19 ± 1 mL/min; left ventricular developed pressure (LVDP), After 120 min of RE [2]: 64±3 mm Hg; aortic flow (AF), After 120 min of RE ([2]; listed as Q10): 18 ± 2* ml/min; coronary flow (CF), After 120 min of RE ([2]; listed as Q10): 19 ± 1* ml/min; heart rate (HR), After 120 min of RE ([2]; listed as Q10): 217 ± 3* beats/min; left ventricular developed pressure (LVDP), After 120 min of RE ([2]; listed as Q10): 64 ± 3* mm Hg; coronary flow (CF), Before ISA ([2]; listed as CoQ 10): 25 ± 2 mL/min; coronary flow (CF), Before ISA ([2]; listed as Q10): 25 ± 2 mL/min
